Marks after values point to notes of the source that are not given here. Each block holds one compound with its values, some of them ahead of it.
Legend:
[1] = molecular target: T1, SCD (Mus musculus, UniProt P13516); assay: Mouse SCD IC50 determination for compounds active in the HTS assay; format: biochemical
T1 sequence (P13516 1-355): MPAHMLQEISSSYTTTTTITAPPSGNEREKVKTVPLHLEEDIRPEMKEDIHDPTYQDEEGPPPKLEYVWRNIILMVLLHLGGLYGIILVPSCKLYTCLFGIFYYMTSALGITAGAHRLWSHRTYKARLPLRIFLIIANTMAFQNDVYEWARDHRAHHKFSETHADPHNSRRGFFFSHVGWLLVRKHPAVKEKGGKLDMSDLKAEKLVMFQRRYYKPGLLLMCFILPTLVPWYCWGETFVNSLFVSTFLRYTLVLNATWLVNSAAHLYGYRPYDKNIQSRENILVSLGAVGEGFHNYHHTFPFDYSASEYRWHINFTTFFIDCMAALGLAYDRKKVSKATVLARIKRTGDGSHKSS
Method: The compounds are analyzed with an HTS microsomal assay. The activities are defined in terms of % SCD enzyme activity remaining at the selected concentration (e.g., 10 μM) of the test compounds.

[2] = molecular target: T2, stearoyl-CoA desaturase (SCD) (Mus musculus, UniProt P13516); assay: HTS microsomal assay of stearoyl-CoA desaturase inhibition using mouse liver microsomes; format: biochemical; conditions: % SCD enzyme activity remaining at 10 μM test compound
T2 construct: Reactions are started by adding 2 mg of microsomal protein; from tissue; host or cells: liver microsomes of male ICR mice on a high-carbohydrate, low fat diet
T2 sequence (P13516 1-355): T1 sequence (P13516 1-355)
Method: The absence of mitochondrial contamination is enzymatically assessed.
The compounds are analyzed with an HTS microsomal assay.

[3] = system: HEPG2; assay: HEPG2 IC50; format: cell-based; conditions: Homo sapiens
[4] = system: sebaceous glands; assay: Effect of topically administered LCF369 on the sebaceous glands of NMRI mice (histomorphometry); format: in vivo, female Crl:NMRI mice; conditions: for atrophogenic effect (recovery): 1% LCF369 7-day treatment
Method: LCF369 is prepared either in a solution of ethanol/propylene glycol (3/7, v/v) or in topical formulations at 1.0, 0.5 or 0.1% for testing in female Crl:NMRI mice. In general, shaved application sites of approximately 2.5 cm^2 on the back of mice are treated twice daily (once on weekends or at study termination) with 50 μl of the LCF369 preparations. To prevent the animals from potential oral uptake of the epicutaneously applied compounds, they are fitted with ruffs and housed individually. After the last application, the animals are euthanised; the treated sites dissected and prepared for histological sections. Hematoxilin/eosin (HE)-stained 3 μm-thick sections are prepared from formalin-fixed, paraffin-embedded tissue. From each animal, one HE-stained section per site is histomorphometrically examined. The entire sections of approximately 10 mm length are evaluated microscopically (200×) for sebaceous glands. The mean size and mean number (per mm^2 dermis) of sectioned alveolar units of the sebaceous glands are determined in a coded fashion with an image analyzer (Axiovision, Zeiss). For statistical analysis, morphometric data are analyzed with a T-test or Mann-Whitney rank sum test. Frozen tissue sections (5 μm) are used for oil red O (lipid) staining.
Groups of 5 mice are treated with 50 μl of 1% or 0.1% LCF369 twice daily (except on weekends, when the animals are treated once daily and on study termination) for 8 days (i.e. 14 applications in total). Four control animals are treated similarly with the vehicle alone. In life, the animals are observed for clinical signs and macroscopic changes of the application sites. One day after the last application, an evaluation is performed. In animals treated with 1.0% LCF369, untreated skin samples distant from the treated sites are also collected in order to assess systemic activity due to percutaneous absorption of LCF369.
Groups of 4 mice are treated with 1.0% LCF369 twice daily for 2, 4, 6 and 8 days (i.e. up to 16 applications). Control groups remain untreated or are treated with the vehicle alone twice daily for 8 days.
LCF369 is tested at 1.0%, 0.5% and 0.1%, groups of 6 mice are treated twice daily for 7 consecutive days. Evaluation is performed on the day following the 14th application.
A 7-day b.i.d. (twice daily) treatment schedule (except on week ends when the animals were treated once daily) with 1.0% LCF369 is applied to groups of 7 mice which are evaluated on days 8 (one day after the 14th application), 24 and 41. For comparison, skin sections from animals treated with vehicle are examined on day 8 and skin samples from untreated animals of the same delivery were examined in parallel on days 8 and 41.
Three different formulations containing 0.5% LCF369 are tested: i) emulsion gel with the penetration enhancer SEPA-9™ (batch 92.66.01-ra), ii) emulsion gel without a penetration enhancer (batch 9450-05-Ra), and iii) a formulation containing particulate compound (“follicular targeting formulation”). They are evaluated after 9 or 13 applications.

[5] = Solubility in co-solvents; format: physicochemical; conditions: compared with other co-solvents
[6] = 0.1% LCF369 topical, 8 days (14 applications), treated sites (locally), day 9, mean (SD), 5 animals
[7] = 0.5% LCF369 emulsion gel containing SEPA-9, 9 applications, mean (SD), 3 animals
[8] = 0.5% LCF369 emulsion gel containing SEPA-9, 13 applications, mean (SD), 3 animals
[9] = 0.5% LCF369 twice daily 7 days, vs vehicle-treated controls
[10] = 1.0% LCF369 topical, 8 days (14 applications), treated sites (locally), day 9, mean (SD), 5 animals
[11] = 1.0% LCF369 topical, 8 days, sites distant from the treated sites (distantly), day 9, mean (SD), 5 animals
[12] = 1% LCF369 twice daily 7 days, vs vehicle-treated controls
[13] = 1.0% LCF369 twice daily for 8 days as printed, vs vehicle, time point of this value not stated
[14] = 1.0% LCF369 twice daily, 2 days of treatment, one day after last application, 4 animals
[15] = 1.0% LCF369 twice daily, 4 days of treatment
[16] = 1.0% LCF369 twice daily, 6 days of treatment
[17] = 1.0% LCF369 twice daily, 8 days of treatment
[18] = 1.0% LCF369 twice daily, after 4 days, vs vehicle
[19] = 1.0% LCF369 twice daily, after 6 days, vs vehicle
[20] = 1.0% LCF369 twice daily, after 8 days, vs vehicle
[21] = LCF 1%, 7-day b.i.d. treatment, evaluation day 8 (one day after last application), 7 animals
[22] = LCF 1%, 7-day treatment, evaluation day 24 (17 days after last application)
[23] = LCF 1%, 7-day treatment, evaluation day 41 (34 days after last application)
[24] = LCF369 0.1% (w/v) twice daily for 7 days
[25] = LCF369 0.5% (w/v) twice daily for 7 days
[26] = LCF369 1.0% (w/v) twice daily for 7 days, one day after last application, 6 animals
[27] = LCF369-treated vs vehicle-treated skin
[28] = one day after the 7 days-treatment period with 1% LCF369

IC50 [1]: 90 nM
Mouse microsome SCD activity % remaining @ 10 μM [2]: 12%
IC50 [3]: 40 nM
melting point: 106 to 108 °C
SMILES: O=C(NCCC1CC1)c1ccc(N2CCN(Cc3ccccc3C(F)(F)F)CC2)nn1 [6-[4-(2-TRIFLUOROMETHYLBENZYL)PIPERAZIN-1-YL]PYRIDAZINE-3-CARBOXYLIC ACID (2-CYCLOPROPYLETHYL)AMIDE]

solubility in benzyl alcohol [5]: surprisingly good solubility
SMILES: O=C(NCCC1CC1)c1ccc(N2CCN(C(=O)c3cc(F)ccc3C(F)(F)F)CC2)nn1 [LCF369, 6-[4-(5-Fluoro-2-trifluoromethylbenzoyl)piperazin-1-yl]pyridazine-3-carboxylic acid (2-cyclopropylethyl)amide]
atrophogenic effect ([4]; 0.1% LCF369, 8 days): little or no atrophogenic effects
Number of sebaceous glandular units [4, 6]: 34.3 (4.1) per mm^2 dermis
Size of sebaceous glandular units [4, 6]: 1090 (200) μm^2
Number of sebaceous glandular units [4, 7]: 10.6 (5.89)*
Size (μm^2) of sebaceous glandular units [4, 7]: 745.8 (339.3)*** μm^2
Number of sebaceous glandular units [4, 8]: 10.1 (3.48)*
Size (μm^2) of sebaceous glandular units [4, 8]: 946.1 (134.0)*** μm^2
hyper/parakeratosis and acanthosis in skin sections ([4]; 0.5% LCF369 formulation containing SEPA-9 vs placebo-treated (vehicle-treated) samples): hyper/parakeratosis and acanthosis is more pronounced
effect on sebaceous glands ([4]; 0.5% LCF369 formulation containing penetration enhancer SEPA-9, 9 and 13 applications): significant atrophy of sebaceous glands
reduction of mean size of sebaceous glands [4, 9]: 48%
reduction of numbers of sebaceous glands per mm^2 dermis [4, 9]: 38%
atrophogenic effect (recovery) ([4]; day 24): substantially reduced
atrophogenic effect (recovery) ([4]; day 41): almost completely absent
differences in numbers and sizes of sebaceous glands at sites distant from the LCF369 treatments ([4]; 1.0% LCF369, 8 days, distant sites): no significant differences
reduction of sebaceous glands in numbers, factor ([4]; 1.0% LCF369, 8 days, vs vehicle, p<0.001): about 2.5
reduction of sebaceous glands in sizes ([4]; 1.0% LCF369, 8 days, vs vehicle, p<0.01): about 1.9 fold
Number of sebaceous glandular units [4, 10]: 13.7 (8.2) *** per mm^2 dermis
Size of sebaceous glandular units [4, 10]: 571 (200) ** μm^2
Number of sebaceous glandular units [4, 11]: 28.4 (6.0) per mm^2 dermis
Size of sebaceous glandular units [4, 11]: 1090 (250) μm^2
reduction of numbers of sebaceous glands [4, 12]: 57%
reduction of size of sebaceous glands [4, 12]: 60%
treatment period after which the effect is statistically significant ([4]; 1.0% LCF369 twice daily (8 applications)): 4 days
progressive decrease in the numbers of sebaceous glands [4, 13]: 12%
progressive decrease in the size of sebaceous glands [4, 13]: 19%
Number of sebaceous glandular units [4, 14]: 24.8 per mm^2 dermis
Size (μm^2) of sebaceous glandular units [4, 14]: 1095 μm^2
Number of sebaceous glandular units [4, 15]: 18.0 per mm^2 dermis
Size (μm^2) of sebaceous glandular units [4, 15]: 875 μm^2
Number of sebaceous glandular units [4, 16]: 12.6 per mm^2 dermis
Size (μm^2) of sebaceous glandular units [4, 16]: 613 μm^2
Number of sebaceous glandular units [4, 17]: 7.0 per mm^2 dermis
Size (μm^2) of sebaceous glandular units [4, 17]: 374 μm^2
decrease of mean size of sebaceous glands [4, 18]: 35%
reduction of numbers of sebaceous glands [4, 18]: 35%
decrease of mean size of sebaceous glands [4, 19]: 35%
reduction of numbers of sebaceous glands [4, 19]: 54%
decrease of mean size of sebaceous glands [4, 20]: 72%
reduction of numbers of sebaceous glands [4, 20]: 75%
Number of sebaceous glandular units [4, 21]: 9.28
Size (μm^2) of sebaceous glandular units [4, 21]: 708 μm^2
Number of sebaceous glandular units [4, 22]: 17.4
Size (μm^2) of sebaceous glandular units [4, 22]: 1154 μm^2
Number of sebaceous glandular units [4, 23]: 21
Size (μm^2) of sebaceous glandular units [4, 23]: 1456 μm^2
Number of sebaceous glandular units [4, 24]: 23.8 per mm^2 dermis
Size (μm^2) of sebaceous glandular units [4, 24]: 1396 μm^2
Number of sebaceous glandular units [4, 25]: 14.5 per mm^2 dermis
Size (μm^2) of sebaceous glandular units [4, 25]: 870 μm^2
Number of sebaceous glandular units [4, 26]: 10.1 per mm^2 dermis
Size (μm^2) of sebaceous glandular units [4, 26]: 675 μm^2
histochemical (HE) staining of skin, sebaceous glands (FIG. 2B) [4, 27]: fewer and smaller (atrophic) sebaceous glands
oil red O staining, lipids associated with hair shafts (FIG. 3B) [4, 27]: significantly reduced lipids associated with hair shafts
minimal statistically significant effective concentration ([4]; applied twice daily (50 μL each time) for 7 days): 0.5%
reduction of mean size of sebaceous glands [4, 28]: 50%
reduction of numbers of sebaceous glands [4, 28]: 57%
concentration at which efficacy is seen ([4]; topical application): ≥ 0.4%
treatment time at which efficacy is seen ([4]; topical application): ≥ 4 days
